What all share (experiment): NCI-60 cell line screen, 48 h
Experiment [1] deals with UO-31 renal.
In experiment [2] the test system is DMS 273 small cell lung.
Experiment [3] has as its system M19-MEL melanoma.
For experiment [4], the system named is HCC-2998 colon.
In experiment [5] the test system is HOP-18 NSCLC.
In experiment [6] the test system is SNB-78 CNS.
For experiment [7], the system named is DMS 114 small cell lung.
The test system of experiment [8] is KM12 colon.
Experiment [9] has as its system HT29 colon.
In experiment [10] the test system is DLD-1 colon.
In experiment [11] the test system is LXFL 529 NSCLC.
The subject of experiment [12] is KM20L2 colon.
Experiment [13] deals with XF 498 CNS.
For experiment [14], the system named is RXF-631 renal.
Experiment [15] has as its system HS 578T breast.

Several values for one entry are separate records, joined by “and”; a condition that tells them apart may be missing. Identical values can stand only once.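 Following 48 hours of exposure in 96-well plates, responses at five concentrations were used to interpolate endpoints linearly. GI50 is the concentration that inhibits growth by half. At the TGI there is no net growth.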 Bounds are passed on as bounds.

On to `COC(=O)C12C3C4C5(C(=O)OC)C(C1C35C(=O)N(C(C)C)C(C)C)C42C(=O)N(C(C)C)C(C)C` (stereo not drawn), for which the TGI in experiment [1], in experiment [2], in experiment [3], in experiment [4], in [5] and in experiment [6] was above 50 µM throughout. In addition, the TGI is above 50 µM in [7]; above 50 µM in experiment [8]; above 50 µM in experiment [9]; above 38.4 µM in experiment [10]; above 50 µM in experiment [11]; above 50 µM in experiment [12].

As to `Cc1ccc2c(c1CCCC(C)(C)O)C(=O)C(=O)C(C(C)C)=C2O`, the TGI in experiment [1], in experiment [2], in experiment [3], in experiment [4], in [5] and in experiment [7] was above 100 µM in each case. In addition, the TGI in experiment [8], in experiment [9], in experiment [10], in experiment [11] and in experiment [12] was above 100 µM in each case.

For the compound `Cc1ccc(C2CC(c3ccco3)=NN2c2ccccc2)o1` (stereo not drawn), the TGI in experiment [1], in experiment [2], in experiment [3], in experiment [13], in experiment [6] and in [7] was above 100 µM throughout. Besides, the TGI in experiment [8], in experiment [9], in experiment [11] and in experiment [12] was above 100 µM throughout.

With `Nc1ccc(C(=O)NN2C(=O)C(Cl)C2c2ccccc2Cl)cc1` (stereo not drawn), the TGI was determined as 30.8 µM in [1]; 12 µM in experiment [2]; 20.5 µM in experiment [3]; 30.1 µM in [4]; 31.5 µM in [13]; 8.87 µM in [5]. In addition, the TGI was determined as 33 µM in [6]; 18.8 µM in experiment [7]; 24.5 µM in experiment [8]; 23.5 µM in [9]; 23 µM in experiment [10]; 5.23 µM in experiment [11]. The compound also showed a TGI in experiment [12] of 29.9 µM.

As for `Cc1cn2c(=O)c3ccccc3nc2s1`, the TGI in experiment [1], in [2], in experiment [3], in [4], in [6] and in [7] was above 100 µM throughout. Also, the TGI in experiment [8], in experiment [9], in experiment [10], in [11] and in [12] was above 100 µM throughout.

Take `C/C(=C1/CCCC2(N=NCC2c2ccccc2)C1=O)c1ccccc1` (stereo not drawn): the TGI in [1] was above 100 µM; in [2] it was 33.3 µM; in experiment [3], 65 µM; in experiment [4], above 100 µM; in experiment [13] it was 49.2 µM; in experiment [5], above 100 µM. Besides, the TGI in experiment [6] is 90.2 µM; in experiment [7], 33.2 µM; in experiment [8], 31.3 µM; in experiment [9], 56.7 µM; in experiment [10] it was above 100 µM; in [11] it was 65.1 µM. Besides, the TGI in experiment [12] was above 100 µM.

With `O=[N+]([O-])c1ccc(-n2nnc(C3=NCCCN3)c2-c2ccc(Cl)cc2)cc1`, the TGI in experiment [1], in experiment [2], in experiment [3], in [4], in [13] and in experiment [5] was above 100 µM throughout. Besides, the TGI in experiment [6], in experiment [8], in [9], in [10], in [11] and in [12] was above 100 µM throughout.

In the case of `N#C/C(=C\c1ccc(O)c(O)c1)C(N)=O`, the TGI in [1], in [2], in experiment [3], in experiment [4], in experiment [6] and in experiment [7] was above 100 µM throughout. The TGI in experiment [8], in experiment [9], in experiment [14], in experiment [10], in experiment [11] and in experiment [12] was above 100 µM each time.

For the compound `Cc1cccc(NC(=O)/C=C/c2ccc(N(CCC#N)CCC#N)cc2C)c1`, the TGI in experiment [1], in experiment [2], in experiment [3], in [4], in [13] and in experiment [7] was above 100 µM each time. The TGI in experiment [8], in experiment [9], in [14], in [10], in experiment [11] and in experiment [12] was above 100 µM in each case.

Regarding `NC(CCC(=O)NC(CSC(=O)N(O)c1ccc(Br)cc1)C(=O)NCC(=O)O)C(=O)O` (stereo not drawn), the TGI in experiment [1], in [2], in experiment [3], in experiment [4], in experiment [5] and in [6] was above 100 µM each time. Moreover, the TGI is above 50 µM in [15]; above 100 µM in experiment [7]; above 100 µM in experiment [8]; above 100 µM in [9]; above 100 µM in experiment [10]; above 100 µM in [11]. In experiment [12], the TGI was above 100 µM. Besides, in experiment [8], the GI50 was > 100 µM and 45 µM.

For `CCCCCC(C[N+]1(C)CCOCC1)C(=O)/C=C/c1ccccc1` (stereo not drawn), the TGI amounted to 29.7 µM in [1]; 11.7 µM in experiment [2]; 32 µM in experiment [3]; 33.7 µM in experiment [4]; 28.3 µM in [13]; 32.1 µM in [5]. Further, the TGI in [6] stood at 46.9 µM; in experiment [7], 26 µM; in [8], 8.71 µM; in experiment [9], 10.3 µM; in experiment [10], 18 µM; in [11], 11.5 µM. In experiment [12], this compound returned a TGI of 32.9 µM.

The values above are taken from PubChem BioAssay (NCI).
